According to ChEMBL document CHEMBL1201862, “PubChem BioAssay data set” (2004):
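Interpolation was linear, between the two tested concentrations surrounding the appropriate level; five concentrations were tested over 48 hours in 96-well plates. At the GI50, growth is halved.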 The source made the active and inactive calls. Rule as the data show it: active = GI50 up to about 1.1 µM and inactive = higher.

Experiments:
Assay in all cases: NCI tumour cell line growth inhibition, 48 h
[1] = system: SF-539
[2] = system: HT-29
[3] = system: MCF7
[4] = system: MDA-MB-231
[5] = system: IGROV-1
[6] = system: SR
[7] = system: NCI-H460
[8] = system: DU-145
[9] = system: COLO 205
[10] = system: HCC 2998
[11] = system: A498
[12] = system: OVCAR-8
[13] = system: OVCAR-4
[14] = system: HOP-92
[15] = system: HCT-116
[16] = system: NCI-H522
[17] = system: HCT-15
[18] = system: HL-60
[19] = system: SW-620
[20] = system: UO-31

Structure (SMILES)	GI50 [1]	GI50 [2]	GI50 [3]	GI50 [4]	GI50 [5]	GI50 [6]	GI50 [7]	GI50 [8]	GI50 [9]	GI50 [10]	GI50 [11]	GI50 [12]	GI50 [13]	GI50 [14]	GI50 [15]	GI50 [16]	GI50 [17] [µM]	GI50 [18]	GI50 [19]	GI50 [20]
CCCC(=O)[O-].[Na+] [SODIUM BUTYRATE]	3000 µM (inactive)	4000 µM (inactive)	1000 µM (inactive)	5710 µM (inactive)	4450 µM (inactive)	789 µM (inactive)	2390 µM (inactive)	2370 µM (inactive)	533 µM (inactive)	400 µM (inactive)	4400 µM (inactive)	1990 µM (inactive)	18700 µM (inactive)	5680 µM (inactive)	1390 µM (inactive)	3440 µM (inactive)	10600	721 µM (inactive)	2310 µM (inactive)	2520 µM (inactive)
COc1cc2c(cc1-c1coc3cc(OCC=C(C)C)ccc3c1=O)OCO2	36.2 µM (inactive)	–	28.6 µM (inactive)	18.5 µM (inactive)	30.8 µM (inactive)	6.32 µM (inactive)	19.1 µM (inactive)	34.9 µM (inactive)	29.4 µM (inactive)	15.4 µM (inactive)	33.4 µM (inactive)	–	13.5 µM (inactive)	37.3 µM (inactive)	17.2 µM (inactive)	15.5 µM (inactive)	9.77	10 µM (inactive)	25.5 µM (inactive)	31 µM (inactive)
N=C(N)SC1c2ccccc2-c2cc([N+](=O)[O-])ccc21 (stereo unspecified)	3.96 µM (inactive)	3.66 µM (inactive)	3.24 µM (inactive)	6.5 µM (inactive)	5.62 µM (inactive)	3.86 µM (inactive)	3.93 µM (inactive)	3.88 µM (inactive)	2.94 µM (inactive)	2.59 µM (inactive)	3.62 µM (inactive)	8.99 µM (inactive)	5 µM (inactive)	13.7 µM (inactive)	4.76 µM (inactive)	2.51 µM (inactive)	4.48	2.61 µM (inactive)	3.15 µM (inactive)	8.13 µM (inactive)
Nc1nc(Cl)c(CO)c(NCC2(CO)CCC2)n1	> 100 µM (inactive)	> 100 µM (inactive)	> 100 µM (inactive)	> 100 µM (inactive)	> 100 µM (inactive)	> 100 µM (inactive)	> 100 µM (inactive)	> 100 µM (inactive)	> 100 µM (inactive)	> 100 µM (inactive)	> 100 µM (inactive)	> 100 µM (inactive)	> 100 µM (inactive)	> 100 µM (inactive)	> 100 µM (inactive)	> 100 µM (inactive)	> 100	> 100 µM (inactive)	> 100 µM (inactive)	> 100 µM (inactive)
O=Cc1ccc2c(c1)CC1(C2)Cc2ccc(C=O)cc2C1	4.81 µM (inactive)	24.5 µM (inactive)	31.8 µM (inactive)	12.2 µM (inactive)	21.5 µM (inactive)	2.67 µM (inactive)	11.6 µM (inactive)	35.5 µM (inactive)	30.3 µM (inactive)	35.8 µM (inactive)	28.1 µM (inactive)	7.26 µM (inactive)	12.4 µM (inactive)	20.6 µM (inactive)	7.52 µM (inactive)	22.6 µM (inactive)	7.03	2 µM (inactive)	16.1 µM (inactive)	11.9 µM (inactive)
Nc1nc(Cl)c(N)c(NCC2(CO)CC(CCCc3ccccc3)C2)n1 (stereo unspecified)	30 µM (inactive)	–	8.02 µM (inactive)	41.5 µM (inactive)	21.6 µM (inactive)	23.6 µM (inactive)	33.7 µM (inactive)	68.7 µM (inactive)	16 µM (inactive)	38.2 µM (inactive)	15.5 µM (inactive)	–	> 33.7 µM (inactive)	51.1 µM (inactive)	0.495 µM (active)	0.121 µM (active)	51.5	0.117 µM (active)	40.1 µM (inactive)	12.9 µM (inactive)
